# Measurements published in patent publication US7138410B2, “Aza-bicyclic N-biarylamides with affinity for the α7 nicotinic acetylcholine receptor” (Bayer HealthCare AG, priority 2002, dated 2006).
# Counter-ions that a name gives are not always drawn. Like-named read-outs stand apart in the source and are kept apart here.
# Molecular target: T1, α7 nAChR (Rattus norvegicus, UniProt Q05941)
# T1 construct: Rat brain tissue (hippocampus or whole brain) is homogenized in homogenization buffer; from tissue; host or cells: rat brain (hippocampus or whole brain), P2 membrane fraction
# Assay: Affinity for α7 nAChR by inhibition of [3H]-methyllycaconitine binding to rat brain membranes
# Procedure: 1. Determination of the Affinity of Test Substances for α7 nAChR by Inhibition of [^3H]-methyllycaconitine Binding to Rat Brain Membranes
# The [^3H]-methyllycaconitine binding assay is a modification of the method described by Davies et al. (Neuropharmacol. 1999, 38, 679–690).
# Rat brain tissue (hippocampus or whole brain) is homogenized in homogenization buffer (10% w/v, 0.32 M sucrose, 1 mM EDTA, 0.1 mM phenylmethylsulfonyl fluoride (PMSF), 0.01% (w/v) NaN3, pH 7.4, 4° C.) at 600 rpm in a glass homogenizer. The homogenate is centrifuged (1000×g, 4° C., 10 min) and the supernatant is removed. The pellet is resuspended (20% w/v) and the suspension is centrifuged (1000×g, 4° C., 10 min). The two supernatants are combined and centrifuged (15 000×g, 4° C., 30 min). The pellet obtained in this way is referred to as the P2 fraction.
# The P2 pellet is washed twice with binding buffer (50 mM Tris-HCl, 1 mM MgCl2, 120 mM NaCl, 5 mM KCl, 2 mM CaCl2, pH 7.4), and centrifuged (15 000×g, 4° C., 30 min).
# The P2 membranes are resuspended in binding buffer and incubated in a volume of 250 μl (amount of membrane protein 0.1–0.5 mg) in the presence of 1–5 nM [^3H]-methyllycaconitine, 0.1% (w/v) BSA (bovine serum albumin) and various concentrations of the test substance at 21° C. for 2.5 h. The nonspecific binding is determined by incubation in the presence of 1 μM α-bungarotoxin or 100 μM nicotine or 10 μM MLA (methyllycaconitine).
# The incubation is stopped by adding 4 ml of PBS (20 mM Na2HPO4, 5 mM KH2PO4, 150 mM NaCl, pH 7.4, 4° C.) and filtering through type A/E glass fibre filters (Gelman Sciences) which have previously been placed in 0.3% (v/v) polyethyleneimine (PEI) for 3 h. The filters are washed twice with 4 ml of PBS (4° C.), and the bound radioactivity is determined by scintillation measurement. All the assays are carried out in triplicate. The dissociation constant Ki of the test substance is determined from the IC50 of the compounds (concentration of the test substance at which 50% of the ligand bound to the receptor is displaced), the dissociation constant KD and the concentration L of [^3H]-methyllycaconitine using the equation Ki=IC50/(1+L/KD).
# [1] = [3H]-methyllycaconitine displacement, rat brain P2 membranes, 21° C., 2.5 h, Ki=IC50/(1+L/KD), read-out: Ki
# T1 sequence (Q05941 23-502): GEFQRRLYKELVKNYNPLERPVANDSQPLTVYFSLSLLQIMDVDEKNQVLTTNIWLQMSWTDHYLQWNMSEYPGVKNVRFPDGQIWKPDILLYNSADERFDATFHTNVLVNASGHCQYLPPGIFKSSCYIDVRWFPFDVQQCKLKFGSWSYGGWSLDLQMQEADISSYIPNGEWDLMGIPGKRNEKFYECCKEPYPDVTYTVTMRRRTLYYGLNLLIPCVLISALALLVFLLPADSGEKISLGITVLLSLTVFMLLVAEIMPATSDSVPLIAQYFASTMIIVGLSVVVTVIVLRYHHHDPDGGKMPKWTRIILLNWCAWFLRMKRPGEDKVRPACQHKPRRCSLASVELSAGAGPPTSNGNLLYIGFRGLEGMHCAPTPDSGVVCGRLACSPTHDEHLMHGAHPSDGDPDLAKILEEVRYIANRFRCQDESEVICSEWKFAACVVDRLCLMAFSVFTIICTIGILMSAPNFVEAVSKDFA
SMILES,Ki [nM],Ki [1] [nM]
"O=C(CC1CN2CCC1CC2)Nc1cccc(-c2ccc(CO)cc2)c1 (stereo not shown) [Example 9, 2-(1-Azabicyclo[2.2.2]oct-3-yl)-N-[4′-(hydroxymethyl)-1,1′-biphenyl-3-yl]acetamide Hydrochloride]",519,
"O=C(Nc1ccc(-c2ccc(CO)cc2)cc1)[C@H]1CN2CCC1CC2 [Example 14, (3R)-N-[4′-(Hydroxymethyl)-1,1′-biphenyl-4-yl]-1-azabicyclo[2.2.2]octane-3-carboxamide Hydrochloride]",20,
"O=C(Nc1ccc(-c2ccc(CO)cc2)cc1)[C@@H]1CN2CCC1CC2 [Example 15, (3S)-N-[4′-(Hydroxymethyl)-1,1′-biphenyl-4-yl]-1-azabicyclo[2.2.2]octane-3-carboxamide Hydrochloride]",39,
"CC(C)(O)c1ccc(-c2ccc(NC(=O)[C@H]3CN4CCC3CC4)cc2)cc1 [Example 20, (3R)-N-[4′-(1-Hydroxy-1-methylethyl)-1,1′-biphenyl-4-yl]-1-azabicyclo[2.2.2]octane-3-carboxamide]",10,
"NC(=O)c1ccc(-c2ccc(NC(=O)[C@H]3CN4CCC3CC4)cc2)cc1 [Example 21, (3R)-N-[4′-(Aminocarbonyl)-1,1′-biphenyl-4-yl]-1-azabicyclo[2.2.2]octane-3-carboxamide Hydrochloride]",98,
"O=C(Nc1ccc(-c2ccc(CO)c(F)c2)cc1)[C@H]1CN2CCC1CC2 [Example 22, (3R)-N-[4′-(Hydroxymethyl)-3′-fluoro-1,1′-biphenyl-4-yl]-1-azabicyclo[2.2.2]octane-3-carboxamide]",58,
"CNC(=O)OCc1ccc(-c2ccc(NC(=O)[C@H]3CN4CCC3CC4)cc2)cc1 [Example 23, (4′-{[(3R)-1-Azabicyclo[2.2.2]oct-3-ylcarbonyl]amino}-1,1′-biphenyl-4-yl)methyl Methylcarbamate]",39,
"CC(C)NC(=O)OCc1ccc(-c2ccc(NC(=O)[C@H]3CN4CCC3CC4)cc2)cc1 [Example 24, (4′-{[(3R)-1-Azabicyclo[2.2.2]oct-3-ylcarbonyl]amino}-1,1′-biphenyl-4-yl)methyl Isopropylcarbamate]",,230
CC(=O)c1ccc(-c2ccc(NC(=O)CC3CN4CCC3CC4)cc2)cc1 (stereo not shown) [Example 26],,310
CC(=O)c1ccccc1-c1ccc(NC(=O)CC2CN3CCC2CC3)cc1 (stereo not shown) [Example 31],,420
